Source: publication PMC7505474, “Toll-like receptor 4-mediated inflammation triggered by extracellular IFI16 is enhanced by lipopolysaccharide binding” (PLoS Pathogens, 2020)
“Also recorded” adds a separate entry of the source. Like-named read-outs stand apart in the source and are kept apart here.

Columns and labels:
[1] = target: T1, IFI16 (Homo sapiens, UniProt Q16666); assay: Saturation binding ELISA, IFI16-coated plates challenged with biotin-LPS-EB
T1 construct: obtained with the full-length recombinant IFI16 protein; made in house
T1 sequence (Q16666 1-729 isoform Q16666-2): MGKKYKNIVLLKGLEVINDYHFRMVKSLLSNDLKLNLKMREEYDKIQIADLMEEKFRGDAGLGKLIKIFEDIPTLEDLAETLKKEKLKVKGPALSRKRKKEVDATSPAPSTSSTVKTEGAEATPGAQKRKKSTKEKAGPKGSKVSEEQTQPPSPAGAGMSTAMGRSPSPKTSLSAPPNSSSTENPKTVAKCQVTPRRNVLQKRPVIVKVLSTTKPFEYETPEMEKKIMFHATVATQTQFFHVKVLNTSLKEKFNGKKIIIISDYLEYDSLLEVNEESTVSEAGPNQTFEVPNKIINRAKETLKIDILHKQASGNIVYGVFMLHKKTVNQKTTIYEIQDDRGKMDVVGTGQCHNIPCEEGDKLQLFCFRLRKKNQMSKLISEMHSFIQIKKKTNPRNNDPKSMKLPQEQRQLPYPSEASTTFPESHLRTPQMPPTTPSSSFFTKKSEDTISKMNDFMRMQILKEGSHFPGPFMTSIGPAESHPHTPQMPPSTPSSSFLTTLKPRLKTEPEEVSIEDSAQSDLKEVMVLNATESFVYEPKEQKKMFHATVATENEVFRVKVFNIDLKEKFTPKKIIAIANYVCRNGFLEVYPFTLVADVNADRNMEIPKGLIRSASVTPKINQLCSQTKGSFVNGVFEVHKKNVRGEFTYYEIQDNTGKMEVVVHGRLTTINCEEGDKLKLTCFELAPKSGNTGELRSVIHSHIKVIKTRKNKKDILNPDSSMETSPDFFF
Experimental: (§1) For saturation binding experiments, microtiter plates (Nunc-Immuno MaxiSorp, Thermo Fischer Scientific) were coated with 2 μg/ml of recombinant IFI16 or 10 μg/ml of BSA or GST in 1X PBS O/N at 4°C. After a washing step with 1X PBS and 0.25% Tween 20 (v/v, Sigma-Aldrich) and blocking step with 1X PBS with 3% BSA and 0.05% Tween 20 for 1 h, increasing concentrations of biotin-labeled LPS-EB, preincubated with 10 μg/ml of polymyxin B (PMB) when specified, were added to the wells and incubated for 1 h at room temperature (RT). Bound proteins were then detected using HRP-conjugated streptavidin. TMB solution (Thermo Fischer Scientific) was used for color development, and OD was measured at 450 nm. Alternatively, microtiter plates were coated with 10 μg/ml of LPS-EB, LPS-PG, LPS-RS, LPS-F583, MPLA, DPLA, or detoxLPS in 1X PBS for 24 h at RT. After washing and blocking for 2 h, increasing concentrations of IFI16, PYRIN, HINA, or HINB were added to the wells, preincubated with 10 μg/ml of PMB when specified, for 2 h. Anti-IFI16 antibodies against the N- or the C-terminus of the protein and HRP-labeled anti-rabbit IgG were then added as primary and secondary antibodies, respectively. The binding was detected as described above.

[2] = target: T1, IFI16; assay: Saturation binding ELISA, full-length IFI16 on immobilized LPS variants / lipid A
Experimental: as §1
(§2) For competitive ELISA, microtiter plates were coated with 1 μg/ml LPS-EB in 1X PBS O/N at RT. Successively, a constant amount of 2 μg/ml IFI16 was added to the wells in the presence of increasing concentration of LPS-EB, MPLA or detoxLPS. After incubation for 4 h at RT under gentle agitation, plates were incubated with an anti-IFI16 N-terminal primary antibody and an HRP-conjugated anti-rabbit IgG secondary antibody. The binding was detected as described above. To determine KD constants, saturation binding experiments were performed, and data were fitted to the Langmuir isotherm equation, which describes the equilibrium binding of the ligands. Data are reported as sigmoid concentration-response curves plotted against log concentrations.

[3] = target: T2, PYRIN (Homo sapiens, UniProt Q16666); assay: Saturation binding ELISA, PYRIN domain on immobilized LPS variants / lipid A
T2 construct: the N-terminal portion containing the pyrin domain (PYRIN); made in house; host or cells: bacteria (pET30a vector)
T2 sequence (Q16666 1-88 limits assumed): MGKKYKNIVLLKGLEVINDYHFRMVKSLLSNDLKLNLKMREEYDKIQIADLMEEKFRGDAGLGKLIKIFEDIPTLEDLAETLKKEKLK
Experimental: as §1, §2

[4] = target: T3, HINA (Homo sapiens, UniProt Q16666); assay: Saturation binding ELISA, HINA domain on immobilized LPS variants / lipid A
T3 construct: each of the 200 amino acid-long HIN domains (namely HINA or HINB); made in house; host or cells: bacteria (pET30a vector)
T3 sequence (Q16666 189-389 limits assumed): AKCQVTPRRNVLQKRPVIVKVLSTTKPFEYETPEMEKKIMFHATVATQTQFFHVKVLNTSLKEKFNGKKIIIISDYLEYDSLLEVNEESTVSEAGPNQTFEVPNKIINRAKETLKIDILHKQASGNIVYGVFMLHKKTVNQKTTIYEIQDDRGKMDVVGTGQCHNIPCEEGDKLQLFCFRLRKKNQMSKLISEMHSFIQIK
Experimental: as §1, §2

[5] = target: T4, HINB (Homo sapiens, UniProt Q16666); assay: Saturation binding ELISA, HINB domain on immobilized LPS variants / lipid A
T4 construct: each of the 200 amino acid-long HIN domains (namely HINA or HINB); made in house; host or cells: bacteria (pET30a vector)
T4 sequence (Q16666 562-761 limits assumed): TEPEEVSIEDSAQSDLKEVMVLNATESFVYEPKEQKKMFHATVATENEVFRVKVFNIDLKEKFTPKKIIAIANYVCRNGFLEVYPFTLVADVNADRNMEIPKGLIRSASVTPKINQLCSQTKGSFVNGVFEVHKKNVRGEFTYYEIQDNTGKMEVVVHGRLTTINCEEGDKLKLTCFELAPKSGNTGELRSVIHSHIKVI
Experimental: as §1, §2

[6] = target: T1, IFI16; assay: SPR, LPS-EB over CM5 IFI16-coated chip; type: binding; details: LPS-EB 3.125–100 nM over immobilized IFI16
Experimental: Recombinant IFI16 was covalently immobilized onto the surface of sensor CM5 chips via amine coupling as done for TLR4 and TLR4/MD2 complex. IFI16 was diluted to a concentration of 25 μg/ml in 10 mM sodium acetate at pH 4.0. The target capture level of IFI16 was of 1,926.6 response units (RUs). Increasing concentrations of LPS-EB, diluted in HBS-EP+ buffer, were flowed over the CM5 sensor chip coated with IFI16 at a flow rate of 30 μl/min at 25°C with an association time of 180 s and a dissociation phase of 600 s. A single regeneration step with 50 mM NaOH was performed following each analytic cycle. The KDs were evaluated using the BIAcore evaluation software (GE Healthcare) and the reliability of the kinetic constants calculated by assuming a 1:1 binding model supported by the quality assessment indicators values.

[7] = target: T1, IFI16; assay: Competition ELISA for IFI16 binding to immobilized LPS-EB; details: 1 μg/ml LPS-EB coated; 2 μg/ml IFI16; competitor 5 to 25 μg/ml
Experimental: as §2

[8] = target: T5, TLR4/MD2 receptor (Homo sapiens, UniProt O00206+Q9Y6Y9); assay: SPR, analytes over immobilized TLR4/MD2; type: binding
T5 construct: purchased R&D Systems 3146-TM-050/CF
Experimental: The Biacore X100 (GE Healthcare) instrument was used for real-time binding interaction experiments. Recombinant TLR4 or TLR4/MD2 complex was covalently immobilized onto the surface of sensor CM5 (cat # BR100012, GE Healthcare) chips via amine coupling. TLR4 was diluted to a concentration of 10 μg/ml in 10 mM sodium acetate at pH 4.0, while TLR4/MD2 complex was diluted to a concentration of 20 μg/ml in the same buffer. Both proteins were injected on CM5 chips at a flow rate of 10 μl/min, upon activation of the carboxyl groups on the sensor surface with 7-min injection of a mixture of 0.2 M EDC and 0.05 M NHS. The remaining esters were blocked with 7-min injection of ethanolamine. Taking into account the ligands (TLR4 or TLR4/MD2) and analytes (IFI16, LPS-EB or IFI16/LPS-EB) molecular weights (MW) of 70 or 90 kDa, and 90, 10 or 100 kDa respectively, the appropriate ligand density (RL) on the chip was calculated according to the following equation: RL = (ligand MW/analyte MW) × Rmax × (1/Sm), where Rmax is the maximum binding signal and Sm corresponds to the binding stoichiometry. The target capture level of the TLR4 or TLR4/MD2 was of 596.0 or 1,223.9 response units (RUs), respectively. […] Increasing concentrations of endotoxin-free IFI16, LPS-EB or IFI16/LPS-EB complex were flowed over the CM5 sensor chip coated with TLR4 or TLR4/MD2 at a flow rate of 30 μl/min at 25°C with an association time of 120 s for IFI16 alone and the IFI16/LPS-EB complex, and 180 s for LPS-EB, and a dissociation phase of 180 s for IFI16 and IFI16/LPS-EB complex or 600 s for LPS-EB. A single regeneration step with 50 mM NaOH was performed following each analytic cycle. All the analytes tested were diluted in the HBS-EP+ buffer (GE Healthcare). […]

[9] = 10 μg/ml immobilized LPS variant or lipid A; increasing full-length IFI16; ELISA 450 nm; read-out: Equilibrium dissociation constant (KD), IFI16
[10] = 10 μg/ml immobilized LPS variant or lipid A; increasing PYRIN domain; read-out: Equilibrium dissociation constant (KD), PYRIN
[11] = 10 μg/ml immobilized LPS variant or lipid A; increasing HINA domain; read-out: Equilibrium dissociation constant (KD), HINA
[12] = 10 μg/ml immobilized LPS variant or lipid A; increasing HINB domain; read-out: Equilibrium dissociation constant (KD), HINB

T5 sequence (O00206 24-631 limits assumed): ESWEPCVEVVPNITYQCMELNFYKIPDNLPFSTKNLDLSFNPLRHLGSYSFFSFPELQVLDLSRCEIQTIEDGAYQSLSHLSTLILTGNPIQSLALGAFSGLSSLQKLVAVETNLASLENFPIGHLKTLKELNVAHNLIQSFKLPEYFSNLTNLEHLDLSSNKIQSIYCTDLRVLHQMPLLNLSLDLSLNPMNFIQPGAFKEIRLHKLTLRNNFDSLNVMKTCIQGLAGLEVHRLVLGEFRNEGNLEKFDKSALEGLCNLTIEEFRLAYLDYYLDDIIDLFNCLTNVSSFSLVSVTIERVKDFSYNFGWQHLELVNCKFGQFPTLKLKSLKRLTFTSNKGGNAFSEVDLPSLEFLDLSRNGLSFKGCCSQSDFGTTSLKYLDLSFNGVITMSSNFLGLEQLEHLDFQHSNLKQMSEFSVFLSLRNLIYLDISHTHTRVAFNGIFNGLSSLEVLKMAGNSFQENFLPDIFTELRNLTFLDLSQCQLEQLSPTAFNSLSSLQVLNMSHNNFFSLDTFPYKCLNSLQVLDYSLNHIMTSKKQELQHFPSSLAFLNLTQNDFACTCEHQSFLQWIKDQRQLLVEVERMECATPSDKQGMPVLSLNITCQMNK
T5 sequence (Q9Y6Y9 17-160 limits assumed): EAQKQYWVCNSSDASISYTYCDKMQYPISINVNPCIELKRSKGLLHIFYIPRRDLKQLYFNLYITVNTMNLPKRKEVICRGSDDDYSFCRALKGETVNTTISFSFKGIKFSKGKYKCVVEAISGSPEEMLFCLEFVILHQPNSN

Compound | Kd [2, 9] [nM] | Kd [3, 10] [nM] | Kd [4, 11] [nM] | Kd [5, 12] [nM] | Competition for IFI16 binding to immobilized LPS-EB [7] | other results
biotin-labeled LPS from Escherichia coli O111:B4 [biotin-LPS-EB] | – | – | – | – | – | biotin-LPS-EB concentration reaching saturation of solid-phase IFI16 ([1]; 2 μg/ml IFI16 coated): 100,000 ng/ml
polymyxin B [PMB] | – | – | – | – | – | Effect of PMB pre-treatment of immobilized LPS / lipid A on IFI16 binding ([2]; 10 μg/ml PMB): completely abolished IFI16 binding; also recorded: no signal was detected; Effect of PMB pre-incubated with biotin-LPS-EB on IFI16/LPS binding ([1]; 10 μg/ml PMB, IFI16-coated wells): completely prevented IFI16 from binding to LPS
LPS from Rhodobacter sphaeroides [LPS-RS] | 19.3 | – | – | – | – | –
LPS from Escherichia coli F583 [LPS-F583] | 4.3 | – | – | – | – | –
LPS from Porphyromonas gingivalis [LPS-PG] | 12 | 46.9 | 84 | 1.6 | – | –
CCCCCCCCCCCCCC(=O)O[C@H](CCCCCCCCCCC)CC(=O)O[C@@H]1[C@@H](NC(=O)C[C@@H](CCCCCCCCCCC)OC(=O)CCCCCCCCCCC)[C@H](OC[C@H]2O[C@H](OP(=O)(O)O)[C@H](NC(=O)C[C@H](O)CCCCCCCCCCC)[C@@H](OC(=O)C[C@H](O)CCCCCCCCCCC)[C@@H]2O)O[C@H](CO)[C@H]1OP(=O)(O)O [DPLA, diphosphoryl lipid A from Escherichia coli F583] | – | – | – | – | – | Kd ([2]; read-out: Equilibrium dissociation constant (KD), IFI16; 10 μg/ml immobilized LPS variant or lipid A; increasing full-length IFI16; ELISA 450 nm): 0.9 nM; Kd ([3]; read-out: Equilibrium dissociation constant (KD), PYRIN; 10 μg/ml immobilized LPS variant or lipid A; increasing PYRIN domain): 47.5 nM; Kd ([4]; read-out: Equilibrium dissociation constant (KD), HINA; 10 μg/ml immobilized LPS variant or lipid A; increasing HINA domain): 67.7 nM; Kd ([5]; read-out: Equilibrium dissociation constant (KD), HINB; 10 μg/ml immobilized LPS variant or lipid A; increasing HINB domain): 2.8 nM
LPS from Escherichia coli O111:B4 [LPS-EB] | 4.2 | 116 | 85.3 | 3.3 | reduced IFI16 binding to immobilized LPS in a concentration-dependent manner | kinetic association constant (Ka) [6]: 11300 M⁻¹ s⁻¹; kinetic dissociation constant (Kd) ([6]; rate constant): 0.00194 s⁻¹; dissociation rate constant (Kd) [8]: 1e-06 s⁻¹; Ka ([8]; association rate constant): 6840 M⁻¹ s⁻¹; dissociation rate constant (koff) ([8]; dissociation rate constant): 1e-06 s⁻¹; Kd ([8]; equilibrium dissociation constant, read-out: KD): 0.147 nM; Rmax ([8]; maximum response): 745.00 RU; Kd ([8]; text / Fig 8C legend, read-out: equilibrium dissociation constant (KD)): 0.15 nM
detoxified LPS from Escherichia coli O111:B4 [detoxLPS] | – | – | – | – | did not interfere | –
CCCCCCCCCCCCCC(=O)O[C@H](CCCCCCCCCCC)CC(=O)O[C@@H]1[C@@H](NC(=O)C[C@@H](CCCCCCCCCCC)OC(=O)CCCCCCCCCCC)[C@H](OC[C@H]2OC(O)[C@H](NC(=O)C[C@H](O)CCCCCCCCCCC)[C@@H](OC(=O)C[C@H](O)CCCCCCCCCCC)[C@@H]2O)O[C@H](CO)[C@H]1OP(=O)(O)O (some centres unmarked) [MPLA, monophosphoryl lipid A from Escherichia coli F583] | 1.2 | 47.2 | 94.1 | 2.7 | much stronger reduction in IFI16 binding to LPS | –
